How the values were obtained:
[1] = test system: water-insoluble (WI) proteins from human lenses; assay: Solubilization of water-insoluble (WI) proteins from human lenses (BCA protein assay of supernatant); format: biochemical; settings: 500 μM; for protein in the supernatant / solubilized protein, % of the initial WI protein / solubilized protein, % of the initial protein: ten human lenses (65 to 75 years)
Experimental: Human lenses (donor age: 55-75 years) were obtained from Saving Sight, Kansas City, MO, and Lions Eye Institute for Transplant & Research, Tampa, FL. The lenses were harvested within 36 hours postmortem, stored with (when used for culturing) or without minimum essential medium (MEM), and shipped to the inventors' laboratory on ice or frozen on dry ice. Lenses shipped on dry ice (used in the presently described and other solubility studies) were stored at −80° C. until use. Each frozen lens was thawed on ice and homogenized with 1.5 mL of PBS in a hand-held glass homogenizer. The homogenate was centrifuged at 20,000×g for 20 min at 4° C. The supernatant was discarded, and the pellet was suspended in 1 mL of homogenization buffer and centrifuged at 20,000×g for 20 min at 4° C. The resulting pellet was lyophilized and designated the water-insoluble (WI) fraction.
In the present example, the ability of aggrelytes to solubilize WI proteins from a human lens was investigated. Stock solutions (10 mM) of Aggrelyte-2 and Aggrelyte-2C were prepared in 50 mM phosphate buffer. The WI fraction (2 mg) was incubated in 50 mM sodium phosphate buffer (0.4 mL), pH 7.4, at 37° C. with aggrelyte at a final concentration of 0-2000 μM. The mixture was incubated at 37° C. with shaking for 24 or 48 hours after adding 0.002% sodium azide to prevent bacterial growth. After incubation, the samples were centrifuged at 20,000×g for 20 min at 4° C., and the supernatants were collected. Protein in the supernatant was measured using a BCA Protein Assay Kit from Thermo Scientific (Waltham, MA) using BSA as the standard.
WI fractions from ten aged human lenses (65 to 75 years) were prepared as in Example 3. The WI fractions (2 mg) were incubated in 50 mM sodium phosphate buffer (0.4 mL), pH 7.4, at 37° C. with 500 μM aggrelyte for 24 or 48 hours. Each sample was separately processed three times and analyzed (mean±S.D.).

[2] = test system: human lenses; assay: Water-soluble (WS) protein content of aggrelyte-treated human lenses; settings: 1 mM, 72 h
Experimental: Water soluble (WS) proteins were obtained from both mouse and human lenses. For mouse lenses, WS protein was obtained by homogenizing each mouse lens in 0.2 mL of PBS, followed by centrifugation at 20,000×g for 20 min at 4° C. […] The remaining nucleus was homogenized in 1 mL phosphate buffer. Both cortical and nuclear protein extracts were centrifuged at 20,000×g for 20 min at 4° C. to obtain the soluble protein in the supernatant. In another set of experiments, human lenses (42-64 years), following incubation with aggrelytes as described in the foregoing examples, were each homogenized with 1.5 mL 50 mM phosphate buffer, pH 7.4. The homogenate was centrifuged at 20,000×g for 20 min to obtain a supernatant. Protein in the supernatant was evaluated to determine the effect of aggrelyte treatment on the soluble protein content in the lens.

[3] = test system: αA-crystallin (αAC); assay: Crystallin levels in solubilized human lens proteins (Western blot), αAC; format: biochemical; settings: 500 μM, solubilized proteins of three human lenses
Experimental: (§1) The contents of crystalline proteins [αA-crystallin (αAC), αB-crystallin (αBC), β-crystallin (βC), and γ-crystallin (γC)] in the solubilized proteins of three human lenses treated with either Aggrelyte-2 or Aggrelyte-2C (500 μM) from Example 4 were determined by Western blot analysis as described for Example 5. Membranes were incubated with antibodies against αAC (1:14,000 dilution; Enzo Life Sciences, Catalog #ADI-SPA-221D), αBC (1:700,000 dilution; University of Iowa), βC (1:14,000 dilution; Santa Cruz Biotechnology, Catalog #sc-22745), and γC (1:7,000 dilution; Santa Cruz Biotechnology, Catalog #sc-22746). The secondary antibodies were HRP-conjugated anti-mouse IgG for αBC and HRP-conjugated […] (Cell Signaling Technology, Catalog #7074S) for αAC, βC, and γC. According to the supplier, the […] detects mostly βB1-crystallin and, to a lesser extent, βA1/3, βA2, βA4, βB2, and βB3-crystallin. The γC antibody reacts with γA, γB, γC, γD, γE, and γF-crystallin.

[4] = test system: αB-crystallin (αBC); assay: Crystallin levels in solubilized human lens proteins (Western blot), αBC; format: biochemical; settings: 500 μM, solubilized proteins of three human lenses; not significant
Experimental: as §1

[5] = test system: mouse lenses; assay: AcK-bearing proteins in WS fraction of treated mouse lenses (Western blot); settings: 1 mM, 24 hours, vs untreated controls (p<0.01) and Aggrelyte-2C (p<0.001)
Experimental: Mouse and human lenses were treated with aggrelytes as described in Example 10. Water-soluble proteins from mouse and human lenses were obtained as described in Example 13. Effects of aggrelyte treatment on AcK-bearing proteins in the WS fractions were evaluated by Western blot analysis as described in Example 5. For Western blotting, 10-20 μg of protein from each lens sample was used and each sample was separately processed three times and analyzed.

[6] = test system: mouse lenses; assay: Stiffness of ex vivo mouse lenses (Example 18); design: species or system mouse (C57BL/6J); settings: 1 mM, 24 hours, ex vivo mouse lenses (3-6 months old); not significant
Experimental: In this example, the lenses were dissected from the eyes of mice (C57BL/6J, 3-6 months old, Jackson Laboratories, Stock No. 000664) by a posterior approach and incubated without (“Control”) or with Aggrelyte-2 or Aggrelyte-2A (1 mM) for 24 hours in serum-free and phenol-red-free MEM (297 mOsm) at 37° C. Lens stiffness was measured as in Example 10, except that the load was applied at 50 mg increments.

Question: With COC(=O)[C@H](CS)NC(C)=O [Aggrelyte-2C, N-acetyl-L-cysteine methyl ester] as the molecule, how does the “protein in the supernatant” value ([1]; 24-hour incubation) read?
Answer: Its value is 0.72 to 0.97 µg/µL.

Question: And the “solubilized protein, % of the initial WI protein” value ([1]; 24-hour incubation)?
Answer: The value was 14-19%.

Question: What about the “protein in the supernatant” value ([1]; 48-hour incubation) of the same molecule?
Answer: The value was 0.68 to 1.12 µg/µL.

Question: What about the “solubilized protein, % of the initial protein” value ([1]; 48-hour incubation) of the same molecule?
Answer: Its value is 14-22%.

Question: What about the “protein solubility, fold less than that of Aggrelyte-2” value ([1]; 48 hours, human lens) of the same molecule?
Answer: The value was roughly 1.4 fold.

Question: What about the “WS content, % higher than in the untreated controls (contralateral lenses)” value [2] of the same molecule?
Answer: Its value is 4.6%.

Question: For COC(=O)[C@H](CSC(C)=O)NC(C)=O [Aggrelyte-2, N,S-diacetyl-L-cysteine methyl ester], which “protein in the supernatant” value ([1]; 24-hour incubation) is on record?
Answer: The value was 0.97 to 1.30 µg/µL.

Question: And the “solubilized protein, % of the initial WI protein” value ([1]; 24-hour incubation)?
Answer: Its value is 20-26%.

Question: What about the “solubilizing WI proteins, fold better than Control or Aggrelyte-2C” value ([1]; 24 and 48 hours, combined ten lenses) of the same molecule?
Answer: Its value is roughly 1.4 fold.

Question: And the “protein in the supernatant” value ([1]; 48-hour incubation)?
Answer: Its value is 0.96 to 1.48 µg/µL.

Question: And the “solubilized protein, % of the initial protein” value ([1]; 48-hour incubation)?
Answer: The value was 19-30%.

Question: What about the “levels of αAC, fold higher than in the Aggrelyte-2C-treated samples” value [3] of the same molecule?
Answer: Its value is 1.3 fold.

Question: And the “levels of αBC, fold higher than in the Aggrelyte-2C-treated samples” value [4]?
Answer: Its value is 1.1 fold.

Question: What about the “levels of αBC, fold higher than in the Controls” value [4] of the same molecule?
Answer: The value was 1.2 fold.

Question: And the “WS content, % higher than in the untreated controls (contralateral lenses)” value [2]?
Answer: The value was 13.2%.

Question: And the “AcK modifications in WS proteins (Western blot)” value [5]?
Answer: Its value is “significantly higher AcK modifications”.

Question: What about the “reduction of lens stiffness” value [6] of the same molecule?
Answer: Its value is “approximately 20%”.

From patent US12350250B2, “Aggrelytes for treating ocular conditions” (The Regents of the University of Colorado, a Body Corporate, priority 2022, dated 2025)
